Data: ChEMBL document CHEMBL4354844, “Discovery of Balovaptan, a Vasopressin 1a Receptor Antagonist for the Treatment of Autism Spectrum Disorder” (J Med Chem, 2020)
Values belong to the compound of their own block, whether it stands above or below them. The source made the active and inactive calls. The rule behind the calls is not given here.

Key:
[1] = Water/octanol distribution coefficient, log D of the compound at pH 7.4 measured after 18 hrs by LC-MS analysis; type: physicochemical
[2] = Selectivity ratio of Kb for antagonist activity at human […] receptor to Kb for antagonist activity at human Gq5s-coupled V1a receptor expressed in CHO cells
[3] = Selectivity ratio of Kb for antagonist activity at human V2 receptor to Kb for antagonist activity at human Gq5s-coupled V1a receptor expressed in CHO cells
[4] = biological target: Vasopressin V1a receptor (Homo sapiens) (UniProt P37288); experiment: Antagonist activity at human Gq5s-coupled V1a receptor expressed in CHO cells assessed as inhibition of vasopressin-induced calcium flux preincubated for 20 mins followed by vasopressin addition and measured for 5 mins by fluo-4-AM dye based FLIPR assay; type: functional, cell-based
Chain of Vasopressin V1a receptor (Homo sapiens) (P37288 whole entry, looked up): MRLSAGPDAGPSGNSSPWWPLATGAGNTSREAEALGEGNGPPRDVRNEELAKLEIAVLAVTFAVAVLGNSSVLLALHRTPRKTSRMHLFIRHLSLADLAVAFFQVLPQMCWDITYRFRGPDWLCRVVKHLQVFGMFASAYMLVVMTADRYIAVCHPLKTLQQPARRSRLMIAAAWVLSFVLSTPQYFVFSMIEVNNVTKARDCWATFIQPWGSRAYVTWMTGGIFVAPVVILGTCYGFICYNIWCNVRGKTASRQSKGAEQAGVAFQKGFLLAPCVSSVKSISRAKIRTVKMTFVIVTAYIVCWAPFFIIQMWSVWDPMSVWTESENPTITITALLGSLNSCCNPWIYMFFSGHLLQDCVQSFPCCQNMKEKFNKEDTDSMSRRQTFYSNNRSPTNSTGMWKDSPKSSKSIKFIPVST

[5] = biological target: MDR1 (ABCB1, P-glycoprotein) (Homo sapiens, UniProt P08183); experiment: Substrate activity at human MDR1 expressed in LLC-PK1 cells assessed as efflux ratio of permeability at 1 uM measured after 3.5 hrs by lucifer yellow based scintillation counting or HPLC method; type: ADME, cell-based
Chain of MDR1 (ABCB1, P-glycoprotein) (P08183 whole entry): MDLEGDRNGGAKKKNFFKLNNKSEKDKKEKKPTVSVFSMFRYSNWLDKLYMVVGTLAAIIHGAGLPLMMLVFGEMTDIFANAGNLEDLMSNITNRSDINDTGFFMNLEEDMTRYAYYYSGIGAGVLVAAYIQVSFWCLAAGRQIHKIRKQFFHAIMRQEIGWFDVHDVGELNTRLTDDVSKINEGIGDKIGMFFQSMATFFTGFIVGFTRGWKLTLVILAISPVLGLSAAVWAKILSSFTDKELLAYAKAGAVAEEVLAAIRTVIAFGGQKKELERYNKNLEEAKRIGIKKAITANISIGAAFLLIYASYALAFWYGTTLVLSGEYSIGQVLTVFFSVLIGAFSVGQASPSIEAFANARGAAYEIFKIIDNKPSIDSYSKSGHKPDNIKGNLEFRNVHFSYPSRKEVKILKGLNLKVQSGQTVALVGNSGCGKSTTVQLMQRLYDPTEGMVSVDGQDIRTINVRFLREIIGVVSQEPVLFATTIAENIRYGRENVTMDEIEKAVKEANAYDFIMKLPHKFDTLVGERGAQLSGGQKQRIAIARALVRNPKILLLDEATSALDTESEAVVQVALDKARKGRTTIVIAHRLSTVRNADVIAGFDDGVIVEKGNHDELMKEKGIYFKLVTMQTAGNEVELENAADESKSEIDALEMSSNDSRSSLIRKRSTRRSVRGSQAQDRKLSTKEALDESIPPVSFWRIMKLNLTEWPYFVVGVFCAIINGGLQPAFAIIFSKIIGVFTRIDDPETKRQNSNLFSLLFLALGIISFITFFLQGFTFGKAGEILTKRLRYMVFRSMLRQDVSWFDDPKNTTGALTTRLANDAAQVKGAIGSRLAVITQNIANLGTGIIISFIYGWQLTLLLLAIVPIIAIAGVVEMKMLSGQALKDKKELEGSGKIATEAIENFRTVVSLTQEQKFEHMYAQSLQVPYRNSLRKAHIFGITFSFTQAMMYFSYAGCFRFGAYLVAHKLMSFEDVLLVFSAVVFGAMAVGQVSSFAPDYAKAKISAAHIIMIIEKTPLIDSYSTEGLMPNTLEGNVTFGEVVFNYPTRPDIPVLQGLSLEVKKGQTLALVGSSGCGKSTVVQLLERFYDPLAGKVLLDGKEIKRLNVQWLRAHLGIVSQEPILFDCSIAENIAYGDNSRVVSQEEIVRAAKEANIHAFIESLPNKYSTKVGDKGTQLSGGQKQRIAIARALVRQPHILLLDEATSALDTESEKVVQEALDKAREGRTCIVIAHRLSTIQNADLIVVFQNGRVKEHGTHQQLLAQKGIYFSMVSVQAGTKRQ

[6] = Intrinsic clearance in rat liver microsomes assessed per mg protein; type: ADME, Microsome; conditions: read-out: CLH
[7] = Intrinsic clearance in human liver microsomes assessed per mg protein; type: ADME, Microsome; conditions: read-out: CLH
[8] = system: Rattus norvegicus; experiment: Neuroprotective activity in stress hyperresponsive Fischer F344 rat assessed as increase in perfusion in substantia nigra at 30 mg/kg, iv administered as bolus dose via catheter by ASL-based MRI analysis; type: functional, organism-based
[9] = Half life in iv dosed rat; type: ADME, organism-based; conditions: in vivo
[10] = system: Rattus norvegicus; experiment: Neuroprotective activity in stress hyperresponsive Fischer F344 rat assessed as increase in perfusion in ventral tegmental area at 30 mg/kg, iv administered as bolus dose via catheter by ASL-based MRI analysis; type: functional, organism-based
[11] = system: Rattus norvegicus; experiment: In vivo receptor occupancy at V1a receptor in stress hyperresponsive Fischer F344 rat at 30 mg/kg, iv administered as bolus dose via catheter; type: functional
[12] = system: Rattus norvegicus; experiment: Neuroprotective activity in iv dosed stress hyperresponsive Fischer F344 rat assessed as improvement in neural activity pattern administered as bolus dose via catheter by ASL-based MRI analysis; type: functional, organism-based
[13] = Clearance in iv dosed rat relative to hepatic blood flow; type: ADME, organism-based; conditions: in vivo
[14] = Volume of distribution at steady state in iv dosed rat; type: ADME, organism-based; conditions: in vivo, read-out: Vdss
[15] = system: Rattus norvegicus; experiment: Neuroprotective activity in stress hyperresponsive Fischer F344 rat assessed as increase in perfusion in hypothalamus at 30 mg/kg, iv administered as bolus dose via catheter by ASL-based MRI analysis; type: functional, organism-based
[16] = system: Rattus norvegicus; experiment: Neuroprotective activity in stress hyperresponsive Fischer F344 rat assessed as increase in perfusion in raphe nuclei at 30 mg/kg, iv administered as bolus dose via catheter by ASL-based MRI analysis; type: functional, organism-based
[17] = Half life in iv dosed human; type: ADME, organism-based; conditions: in vivo

SMILES: CN1Cc2cc(Cl)ccc2-n2c(nnc2[C@H]2CC[C@H](c3cccc(Cl)n3)CC2)C1
logD at 18 h [1]: 2.5 to 3.2

SMILES: CN1Cc2cc(Cl)ccc2-n2c(nnc2[C@H]2CC[C@H](c3ncc(F)cc3F)CC2)C1
logD at 18 h [1]: 2.5 to 3.2

SMILES: CC(C)(C)OC(=O)N1Cc2cc(Cl)ccc2-n2c(nnc2[C@H]2CC[C@H](Oc3ccccc3)CC2)C1
Selectivity ratio [2]: 17 | Selectivity ratio [3]: 19 | pKb [4]: 8.5

SMILES: OCCN1Cc2cc(Cl)ccc2-n2c(nnc2[C@H]2CC[C@H](Oc3ccccc3)CC2)C1
Selectivity ratio [2]: 677 | Selectivity ratio [3]: 1091 | pKb [4]: 9.6 | logD at 18 h [1]: 2.7

SMILES: CN1Cc2cc(Cl)ccc2-n2c(nnc2[C@H]2CC[C@H](c3ncccc3F)CC2)C1
logD at 18 h [1]: 2.5 to 3.2

SMILES: CN1Cc2cc(Cl)ccc2-n2c(nnc2[C@H]2CC[C@H](c3ncccc3Cl)CC2)C1
logD at 18 h [1]: 2.5 to 3.2

SMILES: Cc1onc([C@H]2CC[C@H](c3nnc4n3-c3ccc(Cl)cc3CN(C)C4)CC2)c1C
efflux ratio at 3.5 h, 1 µM [5]: 3.8

SMILES: CN1Cc2cc(Cl)ccc2-n2c(nnc2[C@H]2CC[C@H](Nc3ccccn3)CC2)C1
efflux ratio at 3.5 h, 1 µM [5]: 14

SMILES: CN1Cc2cc(Cl)ccc2-n2c(nnc2N2CCC3(CC2)OCc2ccccc23)C1
microsomal CLint [6]: 718 µL/min/mg | Selectivity ratio [2]: 127 | Selectivity ratio [3]: 218 | microsomal CLint [7]: < 10 µL/min/mg | pKb [4]: 9.6

SMILES: CC(C)N1Cc2cc(Cl)ccc2-n2c(nnc2[C@H]2CC[C@H](Oc3ccccc3)CC2)C1
Selectivity ratio [2]: 224 | Selectivity ratio [3]: 535 | pKb [4]: 9.4

SMILES: CN1Cc2cc(Cl)ccc2-n2c(nnc2-c2ccc(-c3ccccc3)cc2)C1
Activity [8]: Active | half-life [9]: 1.5 h | Activity [10]: Active | Occ [11]: >90% | Selectivity ratio [2]: 13 | Selectivity ratio [3]: 30 | Activity [12]: Dose-dependent effect | clearance [13]: 50 to 60% | Kb [4]: 12 nM | pKb [4]: 8.6 | Vd [14]: 4 to 6 L/kg | Activity [15]: Active | Activity [16]: Active

SMILES: CN1Cc2cc(Cl)ccc2-n2c(nnc2C2CCN(c3ccccn3)CC2)C1
microsomal CLint [6]: 72 µL/min/mg | Selectivity ratio [2]: 2415 | Selectivity ratio [3]: 2478 | microsomal CLint [7]: < 10 µL/min/mg | pKb [4]: 8.9

SMILES: Clc1ccc2c(c1)CNCc1nnc([C@H]3CC[C@H](Oc4ccccc4)CC3)n1-2
efflux ratio at 3.5 h, 1 µM [5]: 4.3 | Selectivity ratio [2]: 430 | Selectivity ratio [3]: 523 | pKb [4]: 8.7 | logD at 18 h [1]: 2.7

SMILES: CN1Cc2cc(Cl)ccc2-n2c(nnc2C2CC=C(c3ccccc3)CC2)C1 (racemic)
Selectivity ratio [2]: 22 | Selectivity ratio [3]: 90 | pKb [4]: 9.3

SMILES: Cc1cc(C)nc([C@H]2CC[C@H](c3nnc4n3-c3ccc(Cl)cc3CN(C)C4)CC2)n1
logD at 18 h [1]: 2

SMILES: CN1Cc2cc(Cl)ccc2-n2c(nnc2[C@H]2CC[C@H](n3nnc4ccccc43)CC2)C1
efflux ratio at 3.5 h, 1 µM [5]: 10.9 | logD at 18 h [1]: 2.4

SMILES: CN1Cc2cc(Cl)ccc2-n2c(nnc2[C@H]2CC[C@H](c3ccccc3)CC2)C1
Selectivity ratio [2]: 4 | Selectivity ratio [3]: 17 | pKb [4]: 9.5

SMILES: CN1Cc2cc(Cl)ccc2-n2c(nnc2[C@H]2CC[C@@]3(CC2)OCc2ccccc23)C1
microsomal CLint [6]: 1000 µL/min/mg | Selectivity ratio [2]: 236 | Selectivity ratio [3]: 669 | microsomal CLint [7]: 72 µL/min/mg | pKb [4]: 9.2

SMILES: CC(=O)N1Cc2cc(Cl)ccc2-n2c(nnc2[C@H]2CC[C@H](Oc3ccccc3)CC2)C1
Selectivity ratio [2]: 538 | Selectivity ratio [3]: 1055 | pKb [4]: 9.5 | logD at 18 h [1]: 2.9

SMILES: CS(=O)(=O)N1Cc2cc(Cl)ccc2-n2c(nnc2[C@H]2CC[C@H](Oc3ccccc3)CC2)C1
Selectivity ratio [2]: 191 | Selectivity ratio [3]: 573 | pKb [4]: 9.5 | logD at 18 h [1]: 3.1

SMILES: CN1Cc2cc(Cl)ccc2-n2c(nnc2N2CCC3(CC2)COCc2ccccc23)C1
microsomal CLint [6]: 949 µL/min/mg | Selectivity ratio [2]: 14 | Selectivity ratio [3]: 167 | microsomal CLint [7]: 22 µL/min/mg | pKb [4]: 9.3

SMILES: Cc1cccc([C@H]2CC[C@H](c3nnc4n3-c3ccc(Cl)cc3CN(C)C4)CC2)n1
logD at 18 h [1]: 2.5 to 3.2

SMILES: CN1Cc2cc(Cl)ccc2-n2c(nnc2N2CCC3(CC2)SCc2ccccc23)C1
microsomal CLint [6]: 493 µL/min/mg | Selectivity ratio [2]: 9 | Selectivity ratio [3]: 65 | microsomal CLint [7]: 24 µL/min/mg | pKb [4]: 9

SMILES: CN(C)CCn1cc(C(=O)N2CCC3(CC2)OCc2ccccc23)c2ccc(Cl)cc21 [RO-5028442]
half-life [17]: 8 h

SMILES: CN1Cc2cc(Cl)ccc2-n2c(nnc2[C@H]2CC[C@H](c3ccc(F)cn3)CC2)C1
logD at 18 h [1]: 2.5 to 3.2

SMILES: Clc1ccc2c(c1)CN(C1CCC1)Cc1nnc([C@H]3CC[C@H](Oc4ccccc4)CC3)n1-2
Selectivity ratio [2]: 113 | Selectivity ratio [3]: 179 | pKb [4]: 9.3 | logD at 18 h [1]: > 3

SMILES: CN1Cc2cc(Cl)ccc2-n2c(nnc2[C@H]2CC[C@H](Oc3ccccc3)CC2)C1
Selectivity ratio [2]: 289 | Selectivity ratio [3]: 629 | pKb [4]: 9.5 | logD at 18 h [1]: 3.2

SMILES: CN1Cc2cc(Cl)ccc2-n2c(nnc2[C@H]2CC[C@]3(CC2)OCc2ccccc23)C1
microsomal CLint [6]: 206 µL/min/mg | Selectivity ratio [2]: 5 | Selectivity ratio [3]: 19 | microsomal CLint [7]: 10 µL/min/mg | pKb [4]: 9.1

SMILES: CN1Cc2cc(Cl)ccc2-n2c(nnc2[C@H]2CC[C@H](C3=NOCC3)CC2)C1
efflux ratio at 3.5 h, 1 µM [5]: 6.1 | logD at 18 h [1]: 1

SMILES: CN1Cc2cc(Cl)ccc2-n2c(nnc2N2CCC3(CC2)OCCc2ccccc23)C1
microsomal CLint [6]: 550 µL/min/mg | Selectivity ratio [2]: 10 | Selectivity ratio [3]: 44 | microsomal CLint [7]: < 10 µL/min/mg | pKb [4]: 8.8

SMILES: CN(C)CC(=O)N1Cc2cc(Cl)ccc2-n2c(nnc2[C@H]2CC[C@H](Oc3ccccc3)CC2)C1
Selectivity ratio [2]: 1025 | Selectivity ratio [3]: 963 | pKb [4]: 9.2 | logD at 18 h [1]: 2.5

SMILES: CN(C)S(=O)(=O)N1Cc2cc(Cl)ccc2-n2c(nnc2[C@H]2CC[C@H](Oc3ccccc3)CC2)C1
Selectivity ratio [2]: 190 | Selectivity ratio [3]: 445 | pKb [4]: 9.5 | logD at 18 h [1]: 4.1

SMILES: CN1Cc2cc(Cl)ccc2-n2c(nnc2N2CCC(O)(c3ccccc3)CC2)C1
microsomal CLint [6]: 435 µL/min/mg | Selectivity ratio [2]: 35 | Selectivity ratio [3]: 38 | microsomal CLint [7]: < 10 µL/min/mg | pKb [4]: 8.6

SMILES: CN1Cc2cc(Cl)ccc2-n2c(nnc2[C@H]2CC[C@H](c3ccccn3)CC2)C1
efflux ratio at 3.5 h, 1 µM [5]: 4.4 | Selectivity ratio [2]: 863 | Selectivity ratio [3]: 1081 | pKb [4]: 9.6

pKb [4]: 8.7
SMILES: Cc1nnc(-c2ccc(-c3ccccc3)cc2)n1-c1ccccc1OCCCCCCN1CCN(C)CC1
Selectivity ratio [2]: 34 | Selectivity ratio [3]: 67

SMILES: CN1Cc2cc(Cl)ccc2-n2c(nnc2[C@H]2CC[C@H](c3noc4ccccc43)CC2)C1
efflux ratio at 3.5 h, 1 µM [5]: 1.4 | logD at 18 h [1]: > 3
